Measurements from US9663463B2, “3-azabicyclo[3.1.0]hexane derivative and use thereof for medical purpose” (priority 2013, dated 2017).
Counter-ions that a name gives are not always drawn.

How the values were obtained:
human μ-opioid receptor = human μ-opioid receptor (Homo sapiens (Human), UniProt P35372); assay: Antagonist activity test using [35S]-GTPγS bond as index using human μ-opioid receptor-expressing cell membrane; format: biochemical
Method: Cells in which a human μ-opioid receptor had been highly expressed was purchased from ChanTest (Cleveland). The cells were cultured in a carbon dioxide gas culturing apparatus by using a Ham's F12 culture medium (Invitrogen) containing 10% of fetal bovine blood serum, 1% of non-essential amino acids, 0.4 mg/ml of G418, 100 U/ml of penicillin and 100 μg/ml of streptomycin. The cultured cells were suspended by using a 0.25% trypsin 1 mM EDTA solution, the suspension was collected by using phosphate-buffered saline and centrifuged at 4° C. and 1,000 rpm for 10 minute to remove the supernatant, whereby a cell mass was obtained. […] Similar homogenization and centrifugation operations were repeated on the sediment, a homogenized buffer was added again to the obtained sediment, and the resultant was similarly homogenized to give a membrane fraction solution. The obtained membrane fraction solution was dispensed, rapidly frozen and stored under freezing at −70° C. or less until use. Furthermore, the protein concentration of the obtained membrane fraction solution was measured by using a BCA protein Assay Kit (Cat. 23227, Pierce) according to the protocol attached to the kit.
The cell membrane fraction solution in which the human μ-opioid receptor had expressed, which had been stored under freezing, was melted, a GTP assay buffer (100 mM NaCl, 5 mM MgCl2, 1 mM EDTA-containing 50 mM Hepes (pH 7.4)) was added thereto, and the resultant was homogenized repeatedly twice by using a Polytron homogenizer (SMT Multi Disperser PB95) under ice cooling at 12,000 rpm for 20 seconds to give a homogeneous solution, and the homogeneous solution was diluted to 0.036 mg/ml with a GTP assay buffer containing 18.2 μM of GDP (final concentration: […]). The dilution was incubated for 15 minutes or more under ice cooling until the reaction was initiated. […] [^35S]-GTPγS (NEG030X, Perkinelmer) was diluted with a GTP assay buffer so as to be 0.616 nM (final concentration: 0.08 nM). The resultant was diluted with a GTP assay buffer so as to be 200 nM (final concentration: 10 nM) by using [D-Ala^2, N-Me-Phe^4, Gly^5-ol]-enkephalinacetate (DAMGO, Sigma) as a μ-opioid receptor agonist. WGA Coated PVT SPA Beads (RPNQ0001, Perkinelmer) were added so as to be 20 mg/ml with a GTP assay buffer, and the resultant was suspended (final concentration: 1 mg/well). 4 μL/well of a test substance solution, 10 μL/well of a DAMGO solution, 26 μL/well of a [^35S]-GTPγS solution, […] of a suspension liquid of WGA Coated PVT SPA Beads, and 110 μL/well of the membrane fraction solution were added to a 96 well plate (1450-401, Perkinelmer), the top part of the plate was sealed, and a reaction was performed at 30° C. for 60 minutes under stirring with a plate shaker. For each measurement plate, a well to which DMSO had been added instead of the test substance, and a well to which DMSO had been added instead of the test substance and a GTP assay buffer had been added instead of the DAMGO solution were prepared. Furthermore, after the reaction was completed, the reactant was centrifuged at room temperature and 1,000 rpm for 3 minutes, and the radioactivity was measured by a microplate scintillation luminescence counter (Perkinelmer).
The IC50 value of the test substance was calculated by using Graphpad Prism 5.

[1] = Plasma concentration of test substance at ED50 value (mice, LC/MS/MS); format: in vivo; details: at the ED50 value, at time of morphine administration, oral, linear regression from two doses
Method: The concentration of the test substances in blood plasma was confirmed by using mice of the same week-old for the same dose as that used in the evaluation of the anti-pruritic effect. The test substance was administered by forced oral administration of an administration vehicle prepared in a similar manner to that in the evaluation of the anti-pruritic effect under a non-fasting condition. The blood samples were collected from the orbital venous plexus, within from 15 minutes after the administration of the test substance to after 180 minutes at the maximum, for multiple times including the timing at which the morphine solution was intracisternally administered, under inhalation anesthesia with diethyl ether or isoflurane using a heparin-treated hematocrit tubes. The collected blood samples were immediately ice-cooled and centrifuged at 1,800 g for 15 minutes at 4° C., and the plasma fractions were transferred and stored under freezing at −30° C. or less until measurement.
The concentrations of the test substances in plasma were measured using LC/MS/MS. Furthermore, as the measurement samples for LC/MS/MS, the supernatants obtained by adding an internal standard substance and acetonitrile in an amount within a range from 5-fold to 10-fold of the amount of the plasma to the collected plasma samples, and removing proteins therefrom, was used.

hERG current = hERG current (Homo sapiens (Human), UniProt Q12809); assay: cell-based
Text: A: the suppression rate (%) of the test substance in each cell
B: the average suppression rate (%) of the vehicle control group

hERG = hERG (Homo sapiens (Human), UniProt Q12809); assay: Safety margin against hERG inhibitory activity; details: hERG IC50×1000/{concentration in plasma at ED50×(1−protein binding rate/100)}
Method: In order to compare the risks of extension of QT interval prolongation in the electrocardiogram among the test substances, the safety margins against the hERG inhibitory effect were calculated. […] Therefore, the following formula was used for calculating the safety margin, and the obtained values were described in Table 7. Safety margin against hERG inhibitory effect=IC50×1000/{concentration in plasma×(1−protein binding rate/100)}
IC50: the IC50 value in a hERG inhibition assay (μM)
Plasma concentration: the plasma concentration of test substance (nM) at the ED50 value in the test for evaluating the anti-pruritic effect in the morphine model
Protein binding rate: the protein binding rate (%) in the protein binding assay in murine serum

hERG current, sequence (Q12809 whole entry): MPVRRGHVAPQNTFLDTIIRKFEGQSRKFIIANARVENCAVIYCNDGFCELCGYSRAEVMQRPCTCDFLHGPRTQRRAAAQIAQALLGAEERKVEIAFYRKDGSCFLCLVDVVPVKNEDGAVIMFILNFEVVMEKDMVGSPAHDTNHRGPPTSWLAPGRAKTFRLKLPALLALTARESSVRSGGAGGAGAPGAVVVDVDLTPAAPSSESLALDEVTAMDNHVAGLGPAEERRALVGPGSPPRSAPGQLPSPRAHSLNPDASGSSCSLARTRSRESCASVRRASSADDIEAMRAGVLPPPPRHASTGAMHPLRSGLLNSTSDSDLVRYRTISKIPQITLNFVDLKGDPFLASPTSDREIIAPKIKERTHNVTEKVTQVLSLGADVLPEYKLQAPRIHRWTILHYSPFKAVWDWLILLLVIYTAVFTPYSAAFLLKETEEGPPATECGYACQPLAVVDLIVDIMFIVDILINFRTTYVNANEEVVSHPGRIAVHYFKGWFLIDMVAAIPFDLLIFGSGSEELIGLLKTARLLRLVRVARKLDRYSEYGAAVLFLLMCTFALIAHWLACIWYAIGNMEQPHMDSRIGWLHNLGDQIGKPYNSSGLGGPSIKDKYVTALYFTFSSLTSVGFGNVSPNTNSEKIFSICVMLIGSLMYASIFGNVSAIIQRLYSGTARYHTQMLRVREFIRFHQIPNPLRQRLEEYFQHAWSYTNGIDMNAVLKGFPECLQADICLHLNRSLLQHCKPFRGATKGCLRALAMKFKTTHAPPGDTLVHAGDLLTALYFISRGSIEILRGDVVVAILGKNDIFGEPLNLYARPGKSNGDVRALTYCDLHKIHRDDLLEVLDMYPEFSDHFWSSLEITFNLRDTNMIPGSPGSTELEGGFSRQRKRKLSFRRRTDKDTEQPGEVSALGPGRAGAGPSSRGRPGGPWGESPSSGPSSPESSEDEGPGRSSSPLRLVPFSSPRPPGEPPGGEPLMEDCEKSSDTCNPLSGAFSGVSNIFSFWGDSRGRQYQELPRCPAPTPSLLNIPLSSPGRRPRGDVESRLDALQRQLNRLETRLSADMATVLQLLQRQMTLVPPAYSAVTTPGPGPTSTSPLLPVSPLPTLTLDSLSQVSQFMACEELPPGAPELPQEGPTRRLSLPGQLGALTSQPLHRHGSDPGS

SMILES	IC50 (human μ-opioid receptor) [nM]	Plasma concentration of test substance [1] [nM]	IC50 (hERG current) [nM]	Safety margin (hERG)
CC[C@]1(c2cccc(NS(=O)(=O)C3CC3)c2)[C@@H]2CN(CCCC3CCC(F)(F)CC3)C[C@@H]21 [Example 4-(b), N-(3-{(1R,5S,6r)-3-[3-(4,4-difluorocyclohexyl)propyl]-6-ethyl-3-azabicyclo[3.1.0]hexan-6-yl}phenyl)cyclopropanesulfonamide hydrochloride]	1.5	31.6	94	157
CC[C@]1(c2cc(F)cc(NS(=O)(=O)C3CC3)c2)[C@@H]2CN(CC3(O)Cc4ccccc4C3)C[C@@H]21 [Example 10-(b), N-(3-{(1R,5S,6r)-6-ethyl-3-[(2-hydroxy-2,3-dihydro-1H-inden-2-yl)methyl]-3-azabicyclo[3.1.0]hexan-6-yl}-5-fluorophenyl)cyclopropanesulfonamide hydrochloride]	3.2	129	62	5
CC[C@]1(c2cccc(NS(=O)(=O)C3CC3)c2)[C@@H]2CN(CCCN3CCCC(F)(F)C3)C[C@@H]21 [Example 16-(b), N-(3-{(1R,5S,6r)-3-[3-(3,3-difluoropiperidin-1-yl)propyl]-6-ethyl-3-azabicyclo[3.1.0]hexan-6-yl}phenyl)cyclopropanesulfonamide hydrochloride]	3.1	44.5	640	58
CC[C@]1(c2cc(NS(=O)(=O)C3CC3)ccc2F)[C@@H]2CN(CCCC3CCC(F)(F)CC3)C[C@@H]21 [Example 5-(b), N-(3-{(1R,5S,6r)-3-[3-(4,4-difluorocyclohexyl)propyl]-6-ethyl-3-azabicyclo[3.1.0]hexan-6-yl}-4-fluorophenyl)cyclopropanesulfonamide hydrochloride]	1.6	116	89	153
CC[C@]1(c2cccc(NS(=O)(=O)C3CC3)c2)[C@@H]2CN(CCCN3CCC(F)(F)C3)C[C@@H]21 [Example 8-(b), N-(3-{(1R,5S,6r)-3-[3-(3,3-difluoropyrrolidin-1-yl)propyl]-6-ethyl-3-azabicyclo[3.1.0]hexan-6-yl}phenyl)cyclopropanesulfonamide hydrochloride]	2.9	10.9	340	99
CC[C@]1(c2cc(NS(=O)(=O)C3CC3)ccc2F)[C@@H]2CN(CC3(O)Cc4ccccc4C3)C[C@@H]21 [Example 2-(b), N-(3-{(1R,5S,6r)-6-ethyl-3-[(2-hydroxy-2,3-dihydro-1H-inden-2-yl)methyl]-3-azabicyclo[3.1.0]hexan-6-yl}-4-fluorophenyl)cyclopropanesulfonamide hydrochloride]	2	21.4	160	1250
CC[C@]1(c2cc(NS(=O)(=O)C3CC3)ccc2F)[C@@H]2CN(CCCN3CCC(F)(F)CC3)C[C@@H]21 [Example 15-(b), N-(3-{(1R,5S,6r)-3-[3-(4,4-difluoropiperidin-1-yl)propyl]-6-ethyl-3-azabicyclo[3.1.0]hexan-6-yl}-4-fluorophenyl)cyclopropanesulfonamide hydrochloride]	1.7	71.5	1300	182
